# Assay results from article PMC6957243 (Bioorganic & medicinal chemistry letters, 2014).
# Tests used:
# [1] = target: T1, rat TRPV1 heterologously expressed in Chinese hamster ovary (CHO) cells (Rattus norvegicus, UniProt O35433); assay: binding competition assay with [3H]RTX; conditions: respectively; for increase in binding affinity: 19 and 20 compared to (R)-5a and (S)-5a; for increases in binding affinity: 24 and 28 compared to 5b and 5c
# [2] = target: T1, rat TRPV1 heterologously expressed in Chinese hamster ovary (CHO) cells; assay: functional 45Ca2+ uptake assay, antagonism of capsaicin; type: cell-based; conditions: 24 and 28 compared to 5b and 5c, respectively
# T1 sequence (O35433 whole entry): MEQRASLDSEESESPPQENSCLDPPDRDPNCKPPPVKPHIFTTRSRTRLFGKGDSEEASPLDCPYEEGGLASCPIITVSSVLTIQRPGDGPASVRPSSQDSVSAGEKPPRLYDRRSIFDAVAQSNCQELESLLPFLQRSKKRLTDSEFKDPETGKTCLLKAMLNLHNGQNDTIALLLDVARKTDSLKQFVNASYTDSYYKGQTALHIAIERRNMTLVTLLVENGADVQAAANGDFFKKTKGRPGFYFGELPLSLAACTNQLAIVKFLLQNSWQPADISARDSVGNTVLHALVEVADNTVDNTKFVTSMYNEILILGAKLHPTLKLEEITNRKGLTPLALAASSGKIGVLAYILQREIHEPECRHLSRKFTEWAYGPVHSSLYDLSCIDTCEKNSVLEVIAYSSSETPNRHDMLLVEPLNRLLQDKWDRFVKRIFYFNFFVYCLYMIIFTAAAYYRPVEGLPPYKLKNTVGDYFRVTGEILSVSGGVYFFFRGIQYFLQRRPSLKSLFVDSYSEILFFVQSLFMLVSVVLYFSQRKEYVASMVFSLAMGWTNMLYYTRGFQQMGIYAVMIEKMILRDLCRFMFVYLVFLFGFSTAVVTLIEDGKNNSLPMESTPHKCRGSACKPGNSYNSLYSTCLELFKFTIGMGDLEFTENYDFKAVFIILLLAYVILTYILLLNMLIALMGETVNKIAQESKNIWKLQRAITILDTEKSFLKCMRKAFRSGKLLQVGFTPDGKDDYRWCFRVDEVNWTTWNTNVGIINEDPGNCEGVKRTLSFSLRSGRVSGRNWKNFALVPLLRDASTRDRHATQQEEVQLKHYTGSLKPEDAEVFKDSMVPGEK
Structure (SMILES),increase in binding affinity [1],increases in antagonism [2],increases in binding affinity [1]
C[C@@H](NC(=S)NC[C@@H](COC(=O)C(C)(C)C)Cc1ccccc1)c1ccc(NS(C)(=O)=O)cc1 [compound 20],~10 fold,–,–
C[C@@H](NC(=S)NCC(COC(=O)C(C)(C)C)Cc1ccc(C(C)(C)C)cc1)c1ccc(NS(C)(=O)=O)cc1 (stereo partly drawn) [compound 28],–,4 fold,6 fold
Cc1ccc(CC(CNC(=S)N[C@H](C)c2ccc(NS(C)(=O)=O)cc2)COC(=O)C(C)(C)C)cc1C (stereo partly drawn) [compound 24],–,10 fold,5 fold
C[C@@H](NC(=S)NC[C@H](COC(=O)C(C)(C)C)Cc1ccccc1)c1ccc(NS(C)(=O)=O)cc1 [compound 19],~10 fold,–,–
